Test results published in US8242118B2, “Arylsulfonamide derivatives for use as CCR3 antagonists in the treatment of inflammatory and immunological disorders” (Axikin Pharmaceuticals Inc., priority 2001, dated 2012).
Counter-ions that a name gives are not always drawn.

Which melting point does the source give for `Cc1cc(C)cc(Oc2ccc([N+](=O)[O-])cc2S(=O)(=O)N2CCNCC2)c1` (as salt: hydrochloride) [Example 1-2, 1-{[2-(3,5-dimethylphenoxy)-5-nitrophenyl]sulfonyl}piperazine hydrochloride] here?
The melting point was 264 to 266 °C.

For `Cc1cc(C)cc(Sc2ccc([N+](=O)[O-])cc2S(=O)(=O)N2CCNCC2)c1` (as salt: hydrochloride) [Example 2-1, 1-({2-[(3,5-dimethylphenyl)-sulfanyl]-5-nitrophenyl}sulfonyl)piperazine hydrochloride], which melting point is on record?
The melting point was 225 to 227 °C.

With `Cc1cc(C)cc(Nc2ccc([N+](=O)[O-])cc2S(=O)(=O)N2CCNCC2)c1` (as salt: hydrochloride) [Example 3-1, N-(3,5-dimethyl-phenyl)-4-nitro-2-(1-piperazinylsulfonyl)aniline dihydrochloride] as the molecule, how does the melting point read?
The melting point was 175 to 179 °C.

With `Cc1cc(C)cc(Oc2ccc(Cl)cc2S(=O)(=O)N2CCNCC2)c1` (as salt: hydrochloride) [Example 5-2, 1-{[5-chloro-2-(3,5-dimethylphenoxy)phenyl]sulfonyl}piperazine hydrochloride] as the molecule, how does the melting point read?
The melting point was 202 to 204 °C.

Which melting point does the source give for `COc1ccc(Oc2cc(C)cc(C)c2)c(S(=O)(=O)N2CCNCC2)c1` (as salt: hydrochloride) [Example 6-2] here?
The melting point was 175 to 177 °C.

For `CN(C)C(=O)c1ccc(Oc2cc(Cl)cc(Cl)c2)c(S(=O)(=O)N2CCNCC2)c1` (as salt: hydrochloride) [Example 10-1, 4-(3,5-dichlorophenoxy)-N,N-dimethyl-3-(1-piperazinylsulfonyl)benzamide hydrochloride], which melting point is on record?
Its melting point is 197 to 199 °C.

Which melting point does the source give for `N#Cc1ccc(Oc2cc(Cl)cc(Cl)c2)c(S(=O)(=O)N2CCCNCC2)c1` (as salt: hydrochloride) [Example 12-1, 3-(1,4-diazepan-1-ylsulfonyl)-4-(3,5-dichlorophenoxy)benzonitrile hydrochloride] here?
Its melting point is 278 to 280 °C.

Which melting point does the source give for `N#Cc1ccc(Oc2cc(Cl)cc(Cl)c2)c(S(=O)(=O)N2CC[C@H](N)C2)c1` (as salt: hydrochloride) [Example 13-1, 1-{5-cyano-2-(3,5-dichlorophenoxy)phenylsulfonyl}-(3S)-aminopyrrolidine hydrochloride] here?
The melting point was 276 °C.

Which melting point does the source give for `COC(=O)c1ccc(Oc2cc(C)cc(C)c2)c(S(=O)(=O)N2CCNCC2)c1` (as salt: hydrochloride) [Example 15-2, methyl 4-(3,5-dimethylphenoxy)-3-(1-piperazinylsulfonyl)benzoate hydrochloride] here?
Its melting point is 120 °C.

With `Cc1cc(C)cc(Oc2ccc(CO)cc2S(=O)(=O)N2CCNCC2)c1` (as salt: hydrochloride) [Example 16-1, [4-(3,5-dimethylphenoxy)-3-(1-piperazinylsulfonyl)phenyl]methanol hydrochloride] as the molecule, how does the melting point read?
The melting point was 160 °C.

For `N#Cc1ccc(Sc2cc(Cl)cc(Cl)c2)c(S(=O)(=O)N2CCNCC2)c1` (as salt: hydrochloride) [Example 17-1, 4-[(3,5-dichlorophenyl)sulfanyl]-3-(1-piperazinylsulfonyl)benzonitrile hydrochloride], which melting point is on record?
The melting point was 82 °C.

For `N#Cc1ccc(S(=O)(=O)c2cc(Cl)cc(Cl)c2)c(S(=O)(=O)N2CCNCC2)c1` (as salt: hydrochloride) [Example 18-1, 4-[(3,5-dichlorophenyl)sulfonyl]-3-(1-piperazinylsulfonyl)benzonitrile hydrochloride], which melting point is on record?
The melting point was 258 °C.

With `N#Cc1ccc([S+]([O-])c2cc(Cl)cc(Cl)c2)c(S(=O)(=O)N2CCNCC2)c1` (stereo not shown) (as salt: hydrochloride) [Example 19-1, 4-[(3,5-dichlorophenyl)sulfinyl]-3-(1-piperazinylsulfonyl)benzonitrile hydrochloride] as the molecule, how does the melting point read?
The melting point was 219 °C.

Which melting point does the source give for `CN(c1cc(Cl)cc(Cl)c1)c1ccc(C#N)cc1S(=O)(=O)N1CCNCC1` (as salt: hydrochloride) [Example 21-1, 4-[(3,5-dichlorophenyl)(methyl)amino]-3-(1-piperazinylsulfonyl)benzonitrile hydrochloride] here?
The melting point was 163 °C.

For `Cc1cc(C)cc(Oc2ccc(C(=O)NCCC#N)cc2S(=O)(=O)N2CCNCC2)c1` (as salt: hydrochloride) [Example 22-1, N-(2-cyanoethyl)-4-(3,5-dimethylphenoxy)-3-(1-piperazinylsulfonyl)benzamide hydrochloride], which melting point is on record?
Its melting point is 101 °C.

For `Cc1cc(C)cc(Oc2ccc(C(=O)NCCC(N)=O)cc2S(=O)(=O)N2CCNCC2)c1` (as salt: hydrochloride) [Example 22-2, N-[4-(3,5-dimethylphenoxy)-3-(1-piperazinylsulfonyl)benzoyl]-beta-alanineamide hydrochloride], which melting point is on record?
Its melting point is 121 °C.

For `Cc1cc(C)cc(Oc2ccc(-c3nnnn3CCC#N)cc2S(=O)(=O)N2CCNCC2)c1` (as salt: hydrochloride) [Example 22-3, 3-{5-[4-(3,5-dimethylphenoxy)-3-(1-piperazinylsulfonyl)phenyl]-1H-tetraazol-1-yl}propanenitrile hydrochloride], which melting point is on record?
Its melting point is 125 °C.

With `Cc1cc(C)cc(Oc2ccc(-c3nnn[nH]3)cc2S(=O)(=O)N2CCNCC2)c1` (as salt: hydrochloride) [Example 22-4, 1-{[2-(3,5-dimethylphenoxy)-5-(1H-tetraazol-5-yl)phenyl]sulfonyl}piperazine hydrochloride] as the molecule, how does the melting point read?
Its melting point is 213 °C.

For `Cc1cc(C)cc(Oc2cc([N+](=O)[O-])ccc2S(=O)(=O)N2CCNCC2)c1` (as salt: hydrochloride) [Example 23-1, 1-{2-(3,5-dimethylphenoxy)-4-nitrophenylsulfonyl}piperazine hydrochloride], which melting point is on record?
The melting point was 284 °C.

For `Cc1cc(C)cc(Oc2cc(Br)cc(S(=O)(=O)N3CCNCC3)c2)c1` (as salt: hydrochloride) [Example 24-1, 1-{[3-bromo-5-(3,5-dimethylphenoxy)phenyl]sulfonyl}piperazine hydrochloride], which melting point is on record?
Its melting point is > 84 °C (dec.).

With `Cc1cc(C)cc(Oc2ccncc2S(=O)(=O)N2CCNCC2)c1` (as salt: hydrochloride) [Example 25-1, 1-{[4-(3,5-dimethylphenoxy)-3-pyridinyl]sulfonyl}piperazine hydrochloride] as the molecule, how does the melting point read?
Its melting point is 220 °C.

With `Cc1cc(C)cc(Oc2ccc([N+](=O)[O-])cc2S(=O)(=O)N2CCNCC2)c1.O=C(O)C(F)(F)F` [Example 1-3] as the molecule, how does the melting point read?
Its melting point is 120 to 125 °C.

Which melting point does the source give for `O=[N+]([O-])c1ccc(Oc2cc(Cl)cc(Cl)c2)c(S(=O)(=O)N2CCC(N3CCCC3)CC2)c1` [Example 4-1, 1-{[2-(3,5-dichlorophenoxy)-5-nitrophenyl]sulfonyl}-4-(1-pyrrolidinyl)piperidine] here?
Its melting point is 217 to 218 °C.

Which melting point does the source give for `N#Cc1ccc(Oc2cc(Cl)cc(Cl)c2)c(S(=O)(=O)N2CCNCC2)c1` [Example 6-4] here?
The melting point was 179 to 181 °C.

Which melting point does the source give for `N#Cc1ccc(Oc2cc(Cl)cc(Cl)c2)c(S(=O)(=O)N2CCC(N3CCCC3)CC2)c1` [Example 6-5] here?
Its melting point is 186 to 187 °C.

For `N#Cc1ccc(Oc2cc(Cl)cc(Cl)c2)c(S(=O)(=O)N2C[C@H]3CCCN[C@H]3C2)c1` [Example 13-6], which melting point is on record?
The melting point was 164 to 165 °C.

Which melting point does the source give for `N#Cc1ccc(Oc2cc(Cl)cc(Cl)c2)c(S(=O)(=O)N2CCNCC2C(=O)O)c1` (stereo not shown) [Example 13-9] here?
Its melting point is 262 °C.

With `Cl.N#Cc1ccc(Sc2cc(Cl)cc(Cl)c2)c(S(=O)(=O)N2CCCNCC2)c1` [Example 17-3] as the molecule, how does the melting point read?
Its melting point is 277 to 278 °C.
